This note sets out measurements from ChEMBL document CHEMBL4052775, “Design, synthesis and in vitro anti-mycobacterial evaluation of gatifloxacin-1H-1,2,3-triazole-isatin hybrids” (Bioorg Med Chem Lett, 2017).

Structures are written as SMILES. ≈ marks a conversion by molar mass, not a printed value.

As a reminder, the MIC is the least concentration at which growth counts as inhibited.

The subject of the assay is Mycobacterium tuberculosis. Kind of assay: Antimycobacterial activity against isoniazid/rifampicin/ethambutol-resistant Mycobacterium tuberculosis 09710 by two fold dilution method. It counts as functional.
In turn, `CO[C@H]1/C=C/O[C@@]2(C)Oc3c(C)c(O)c4c(O)c(c(/C=N/N5CCN(C)CC5)c(O)c4c3C2=O)NC(=O)/C(C)=C\C=C\[C@H](C)[C@H](O)[C@@H](C)[C@@H](O)[C@@H](C)[C@H](OC(C)=O)[C@@H]1C` [RIFAMPIN] showed an MIC of 32 µg/mL (≈ 38.9 µM).
For `NNC(=O)c1ccncc1` [ISONIAZID] the value was above 128 µg/mL; for `COc1c(N2CCNC(C)C2)c(F)cc2c(=O)c(C(=O)O)cn(C3CC3)c12` (stereo not drawn) [GATIFLOXACIN], 1 µg/mL (≈ 2.66 µM).
